Patent publication US5518988A, “Method of counteracting an ethylene response in plants” (North Carolina State University, priority 1994, dated 1996)

How the values were obtained:
tomatoes = assay: Tomato ripening after ethylene treatment; assay type: in vivo, tomatoes (Lycopersicon esculentum); conditions: applied for 12 hours before the ethylene treatment
Method: Tomato seeds were washed with NaOCl (10%) and rinsed with water. The seeds were placed on wetted filter paper with 10 mM sodium phosphate buffer at pH 5.8. The germination was done in the dark. When the seedlings were about 1 mm height, 30 seeds by sample were placed on wet filter paper in a 0.5 l jar. 1-Methylcyclopropene was added over 24 hours before adding 10 μl/l ethylene for 5 days.
When 1-methylcyclopropene was applied for 12 hours before the ethylene treatment, only 10 nl/l of compound was enough to preserve tomatoes.

Bananas = assay: Banana ripening (chlorophyll disappearance); assay type: in vivo, bananas (Musa sapientum)
Method: Bananas were individually placed in a 3 l jar. 1-Methylcyclopropene was injected into the jar at a determined concentration. The plant material was then aerated and 1 ml/l of ethylene was added for 12 hours. Controls were held in jars without chemical treatment. Chlorophyll measurement was made as previously described in Sisler and Wood, 1988). The experiment was done 7 days after 1-methylcyclopropene treatment.

ethylene receptor [1] = assay: 14C-ethylene binding to carnation petals; design: species or system carnation (Dianthus caryophyllus); conditions: flowers treated with 5 nl/l, stored 4 days at room temperature at 4° C. before binding experiment (FIG. 4)
Method: Triplicate samples of 3 g cut carnations' petals were placed in a 2.51 desiccator containing ^14 C-ethylene-mercuric perchlorate complex (110 mCi/mM) in a 25 ml Erlenmeyer flask. Then, an excess of […] lithium chloride was added to the ethylene-mercuric perchlorate complex to release the gaseous ethylene. The mixture was stirred for 6 minutes. To determine the amount of binding, 3 ml of unlabelled ethylene was added in one desiccator. After 2 hours of ethylene exposure, the desiccators were opened and the samples were aerated for 4 minutes. Each sample was then placed in a 250 ml jar. 0.2 Ml of mercuric perchlorate on a 0.5 cm^2 piece of fiber-glass filter in a scintillation vial was then added. After 18 hours, the scintillation vials were removed, scintillation fluid added and the radioactivity counted for each sample.
To determine if the 1-methylcyclopropene acted on the ethylene receptor, flowers were treated with 5 nl/l of 1-methylcyclopropene and stored for 4 days at room temperature at 4° C. before the ethylene binding experiment. Carnation petals preincubated with 1-methylcyclopropene and control petals which had not been incubated with 1-methylcyclopropene were then incubated in the presence of ^14 C-ethylene. One sample representing the control was incubated with a saturating concentration of unlabelled ethylene in the presence of ^14 C-ethylene. […]

carnations [2] = assay: Stopping the senescent process (petal in-rolling) of carnations due to exogenous and endogenous ethylene; assay type: in vivo, carnation (Dianthus caryophyllus)
Method: Flowers in a pre-senescent stage were treated with 5 nl/l of 1-methylcyclopropene and the senescent process was observed.
The carnations need to have an exogenous ethylene exposure at least for 6 hours to have a visible sign of senescence. Treatment with 3 nl/l of 1-methylcyclopropene is enough to stop that process. […] 1-methylcyclopropene seems to reduce and prevent the autocatalytic production of ethylene.
The ability of 1-methylcyclopropene to stop the senescence process was observed by adding ethylene over 6 hours. […] Thereafter 1-methylcyclopropene was added. The process of senescence was stopped by the binding of 1-methylcyclopropene on the ethylene receptor and giving a molecular response.

carnations [3] = assay: Ethylene production of carnation flowers; assay type: in vivo, carnation (Dianthus caryophyllus); conditions: compound applied at the ethylene climacteric; thereafter ethylene production measured
Method: Ethylene production was followed from the beginning of the ethylene climacteric production. […] 1- Methylcyclopropene was applied. Thereafter ethylene production was measured.

carnations [4] = assay: Protection of in vivo cut carnations against exogenous ethylene (pre-treatment with compound); design: species or system carnation (Dianthus caryophyllus)
Method: The treatment of carnations with ethylene hastens the process of senescence, producing a petal in-rolling phenomena (Halevy and Mayak, 1981). Carnations at stage II, with low ethylene production and no visible signs of senescence (Woodson, 1987) were treated with 1-methylcyclopropeneat different concentration for 6 hours before adding […] of ethylene for 1 hour.
1-Methylcyclopropene was added for various times before the application of exogenous ethylene. […] Treatment with about 250 to 300 nl/l of 1-methylcyclopropene for five minutes was enough to protect the flowers. Treated for 24 hours, with 0.5 nl/l protected against 1 ml/l of ethylene.
Flowers were treated with 5 nl/l of product during 6 hours, then, stored for 10 days at room temperature. One ml/l of ethylene was then added over 18 hours. Ethylene had no effect on the treated carnations 10 days after the 1-methylcyclopropene treatment (data not shown). The binding of 1-methylcyclopropene on carnations seems to be irreversible.
Cut carnations at stage I and stage III were treated with 1-methylcyclopropene. For young carnations, the concentration of 1-methylcyclopropene giving a protective effect was about 1.25 and 2.5 nl/l. For these, the protection against ethylene was total. For old carnations, rates between 2.5 and 5 nl/l of 1-methylcyclopropene were sufficient to give a response, but total protection was not achieved. Total protection of older carnations was only achieved with 10 nl/l of 1-methylcyclopropene (data not shown).

ethylene receptor [5] = assay: Diffusion of 3H 1-methylcyclopropene from carnation petals; assay type: binding, carnation (Dianthus caryophyllus)
Method: In order to label the ethylene receptor, 1-methylcyclopropene was labelled with tritium and the specific activity obtained was 60 mCi/mM. An eventual diffusion of the compound was studied on carnations. The flowers were treated with 1-methylcyclopropene, and with large amounts of ethylene. Control flowers were treated with 1-methylcyclopropene alone. The diffusion was followed for 7 days. […] When the experiment was made at 4° C., the diffusion was nonexistent.

Compound | concentration enough to preserve tomatoes (tomatoes) [nl/l] | Ki (chlorophyll measurement) (Bananas; 1 ml/l ethylene for 12 hours, measured 7 days after treatment) [nl/l] | Ki for chlorophyll disappearance (Bananas; experiments done in the dark) [ul/l] | Ki for chlorophyll disappearance (Bananas; experiments done in the light) [ul/l] | time for which ripening was prevented (Bananas; treated bananas, fruits turned brown after this period) | specific 14C-ethylene binding (ethylene receptor [1]) | senescent process of flowers treated in a pre-senescent stage (carnations [2]; 5 nl/l, observed 15 days later, untreated control in-rolled one day later) | concentration enough to stop the senescence process due to exogenous ethylene exposure (carnations [2]; after exogenous ethylene exposure of at least 6 hours) [nl/l] | process of senescence after in-rolling had begun (carnations [2]; ethylene over 6 hours, in-rolling begun, thereafter compound added) | petal in-rolling of carnations treated with ethylene and then compound (carnations [2]; ethylene, then 1-methylcyclopropene) | ethylene production, control versus treated flowers (FIG. 3) (carnations [3]) | effect of ethylene on treated carnations 10 days after treatment (carnations [4]; 5 nl/l for 6 hours, stored 10 days at room temperature, then 1 ml/l ethylene over 18 hours) | minimal concentration preventing the ethylene process, compared with that at the other ethylene levels (carnations [4]; flowers treated with 1 ml/l of ethylene) | concentration to protect the flower against ethylene action, compared with STS, DACP or NBD (carnations [4]; in vivo carnations) | concentration achieving total protection (carnations [4]; old cut carnations (stage III)) [nl/l] | minimal concentration preventing the ethylene process (flowers looked like control without ethylene) (carnations [4]; stage II carnations, 6 hours treatment before 10 or 1000 ml/l ethylene for 1 hour, after 4 days) [nl/l] | concentration needed to protect the flowers against exogenous ethylene (carnations [4]; treated for 24 hours, against 1 ml/l of ethylene) [nl/l] | extent of protection against ethylene (carnations [4]; young cut carnations (stage I), about 1.25 and 2.5 nl/l) | diffusion of the labelled compound from carnations (ethylene receptor [5]; experiment made at 4° C.) | diffusion of the labelled compound from carnations (ethylene receptor [5]; followed for 7 days, flowers without ethylene treatment)
CC1=CC1 [1-methylcyclopropene] | 10 | 0.4 | 40 | 1.2 | about 15 days | totally inhibited | did not show a senescent process | 3 | stopped | no visible sign of the phenomenon | considerably lower | no effect | the same | much lower | 10 | 2.5 | 0.5 | total |  | 
CC1=CC1 [^3 H 1-methylcyclopropene] |  |  |  |  |  |  |  |  |  |  |  |  |  |  |  |  |  |  | nonexistent | a little diffusion
